{
  "source": "patent US9127079B2",
  "about": "“Inhibitors of phosphatase and tensin homolog (PTEN) conjugates” (THE UNIVERSITY OF BRITISH COLUMBIA, priority 2009, dated 2015)",
  "key": {"PTEN": {"test_system": "PTEN", "test": "Immunostaining of endogenous PTEN: nuclear translocation in cultured neurons with NMDA", "type": "cell-based, rat", "details": "peptide 10 uM, NMDA stimulation", "protocol": "Dissociated cultures of rat cortical or hippocampal neurons were prepared from 18-d-old Sprague Dawley rat embryos as described previously (Mielke and Wang 2005). To obtain mixed cultures enriched with neurons, uridine (10 μM) and 5-Fluor-T-deoxyuridine (10 μM) were added to the culture medium at 3 d in vitro (DIV) and maintained for 48 h to inhibit non-neuronal cell proliferation before the cultures were returned to the normal culture medium. Mature neurons (12-14 DIV) were used for experiments.\nIn order to induce excitotoxicity, 12-14 DIV cultured neurons were washed and transferred to Mg2+-free extracellular solution (ECS) containing the following (in mM): 25 HEPES acid, 140 NaCl, 33 glucose, 5.4 KCl, and 1.3 CaCl2, with pH 7.35 and osmolarity 320-330 mOsm. ECS and subjected to NMDA-induced excitotoxicity (20 μM NMDA, 10 μM glycine, 60 min at room temperature) or any other experimental conditions as indicated in the texts. Cells were then washed twice with normal ECS, and returned to the original growth conditions until additional assay."}, "[1]": {"test": "Transgenic G37R SOD1 mouse model of ALS: survival and behavioural outcomes", "type": "in vivo", "details": "IP 16 mg/kg 3 times a week", "protocol": "Transgenic mice expressing G37R SOD1 (G37R) at almost 8 months of age and having no apparent pathologic symptoms were double blinded with a designated code and divided into 3 groups of 12 mice (6 male and 6 female) maintained on a pure C57BL6 background in the local animal facility under a 12 h light cycle with food and drinking water ad libitum. All mice were genotyped by PCR. The use of animals as described in this study was carried out according to The Guide to the Care and Use of Experimental Animals of the Canadian Council on Animal Care. […].\nBody weight and neurological scores such as HLR scores and Rota Rod functions were regularly monitored and recorded. End points and survival dates were determined when mice were not able to stand up within 20 s when moved on the side. Disabled mice were anesthetized and sacrificed according to the guidelines of The University of British Columbia for the care and use of laboratory animals. All collected data were subjected to statistical analysis using Kaplan-Meier plots and Log-rank tests."}, "transplanted iPS-NPCs": {"test_system": "transplanted iPS-NPCs", "test": "Survival of iPS-NPCs transplanted intracerebrally after focal cerebral ischemia in the rat (TUNEL)", "type": "in vivo", "from_the_text": "iPS-MEF-Ng-20D-17 from Kyoto University, and Cell Bank of RIKEN BioResource Center of Japan (Okita K. et al. Nature (2007) 448(7151):313-17) was induced into iPS-NPCs using a multistage differentiation protocol with some modifications (Kumagai G. et al. PLoS ONE (2009) 4(11):e7706). In brief, the human iPS cells expanding on irradiated MEF feeder cells were passaged, and then transferred to nonadherent culture dishes where they readily formed spheroid embryoid bodies (EBs). Clusters of neuroepithelial-like cells could be isolated and propagated from EBs in the medium of DMEM-F12, N2 supplement (1%; Invitrogen), and 20 ng/mL FGF-2 (R&D Systems™, Germany).\nPrior to transplantation, the iPS-NPSs were labeled using 1 μg/mL bis-benzimide (Hoechst™ 33342; Sigma™) for 1 hours at 37° C. as previously described (Shyu W C. et al. J Clin Invest (2008) 118(1):133-148). Labeled cells were then collected and washed in PBS three times. iPS-NPCs were counted using a cytometer to ensure an adequate cell number for transplantation. One week after brain ischemia, adult male Sprague-Dawley rats (weight >300 g) were anesthetized with chloral hydrate (0.4 g/kg, ip) and injected stereotaxically with approximately 1×10^6 cells in a 3-5 μL PBS suspension through a 26-gauge Hamilton syringe into 3 cortical areas adjacent to the right MCA, 3.0 to 5.0 mm below the dura. […]"}, "[2]": {"test": "Infarct volume by MRI after cerebral ischemia (MCA/CCA ligation)", "type": "in vivo, rat", "details": "for infarct volume assessed by MRI: seven days after cerebral ischemia; for Mean (infarct volume): given 6 hours after ischemia onset, n=8", "protocol": "Adult male Sprague-Dawley rats (weight 200 g) were used in this study. All surgical procedures were performed using sterile/aseptic techniques in accordance with Institutional guidelines. Rats were anesthetized with chloral hydrate (0.4 g/kg IP) and subjected to cerebral ischemia. Ligation of the right middle cerebral artery (MCA) and bilateral common carotids arteries (CCAs) was performed by methods described previously (Shyu et al. 2005). The CCAs were clamped with non-traumatic arterial clips. The right MCA was ligated with a 10-0 nylone suture. After 90 min of ischemia, the suture on the MCA and the arterial clips on the CCAs were removed to allow reperfusion. Core body temperature was monitored with a thermistor probe (Hewlett-Packard™ Model 21090A probe, Hewlett-Packard Company™, Andover, Mass.), and maintained at 37° C. with a heating pad during anesthesia. After recovery from anesthesia, rat body temperature was maintained at 37° C. with a heat lamp. […]\nMRI was performed on rats under anesthesia in an imaging system (R4, GE™) at 3.0 T. Brains were scanned in 6 to 8 coronal image slices, each 2 mm thick without any gaps. T2-weighted imaging (T2WI) pulse sequences were obtained with the use of a spin-echo technique (repetition time, 4000 ms; echo time, 105 ms) and were captured sequentially for each animal at day 7 after cerebral ischemia. To measure the infarction area in the right cortex, we subtracted the noninfarcted area in the right cortex from the total cortical area of the left hemisphere (Shyu et al. 2004). The area of infarct was drawn manually from slice to slice, and the volume was then calculated by internal volume analysis software (Voxtool™, General Electric™)."}},
  "data": [
    {"substance": "KEIVSRNKRRYQED-YGRKKRRQRRR (KEIVSRNKRRYQEDYGRKKRRQRRR; PTEN K13 interference peptide conjugated to TAT protein transduction domain) [Peptide-K13]", "values": [
      {"measurement": "PTEN nuclear translocation (endogenous PTEN immunostaining)", "setting": "PTEN", "result": "prevented PTEN nuclear translocation"},
      {"measurement": "behavioural outcomes", "setting": "[1]; female ALS mice", "result": "improves behavioural outcomes"},
      {"measurement": "survival", "setting": "[1]; female ALS mice", "result": "prolongs the survival"},
      {"measurement": "survival", "setting": "[1]; male ALS mice", "result": "no statistically significant improvement"},
      {"measurement": "TUNEL positive transplanted iPS-NPCs", "setting": "transplanted iPS-NPCs; 7 days after transplantation, vs saline-treated rats, n=6", "result": "significantly fewer"},
      {"measurement": "survival rate of transplanted iPS-NPCs", "setting": "transplanted iPS-NPCs; intravenous 8.4 mg/kg once a day for 7 days following transplantation, ischemic rat", "result": "significantly increased"},
      {"measurement": "decrease in infarct volume as compared to the control", "setting": "[2]; 1.0 mg/kg intravenous", "result": "greater than 50%"},
      {"measurement": "decrease in infarct volume as compared to the control", "setting": "[2]; 10 mg/kg intravenous", "result": "greater than 50%"},
      {"measurement": "infarct volume assessed by MRI", "setting": "[2]; i.v. 8.4 mg/kg given 2 hours after ischemia onset", "result": "significantly reduced"},
      {"measurement": "infarct volume assessed by MRI", "setting": "[2]; i.v. 8.4 mg/kg given 6 hours after ischemia onset", "result": "significantly reduced"},
      {"measurement": "Mean (infarct volume)", "setting": "[2]; intravenous 0.1 mg/kg", "result": 160.900},
      {"measurement": "Mean (infarct volume)", "setting": "[2]; intravenous 1.0 mg/kg", "result": 72.850},
      {"measurement": "Mean (infarct volume)", "setting": "[2]; intravenous 10 mg/kg", "result": 63.700}
    ]}
  ]
}
